One assay deals with T1, EGFR (L858R T790M C797S) (Homo sapiens, UniProt P00533, C797S/L858R/T790M).
T1 construct: purchased SignalChem E10-122VG
As to the kind of experiment: Biochemical EGFR inhibition assay (Caliper mobility shift), EGFR LRTMCS. The settings on record: LRTMCS (PH) IC50 (nM) @ 1 mM ATP (Num), EGFR LRTMCS mutant. The method, then:
Reactions proceeded until between 10% to 20% total peptides were phosphorylated at room temperature (25° C.) and were terminated with 35 mM 2,2′,2″,2′″-(ethane-1,2-diyldinitrilo)tetraacetic acid (EDTA). Product was detected using the Caliper mobility shift detection method where the phosphorylated peptide (product) and substrate were electrophoretically separated and measured. Percent activity was plotted against log concentration of compound and points to generate an apparent IC50.

Assay [1] concerns the target T2, intracellular phosphorylation of EGFR in NCI-H1975 cell line that harbors the EGFR L858R T790M mutations (Homo sapiens, UniProt P00533, L858R/T790M).
T2 construct: NCI-H1975 cell line that harbors the EGFR L858R T790M mutations (ATCC, CRL-5908); host or cells: NCI-H1975
In words: NCI-H1975 pEGFR AlphaLISA assay. Format: cell-based. The conditions noted are these: NCI-H1975 cells (EGFR L858R T790M), p-EGFR (Tyr1068), 4-5 hours incubation; read-out: Ext pEGFR H1975 GMean IC50 (nM) Protocol: @Pharmaron AlphaLISA (Num). The method, then:
On the next day, the test compounds and DMSO control were added into H1975 cell plate followed by incubation at 37C/5% CO2 for 4-5 hours. […] Then 5 μL of a donor bead mix was added to each well followed by overnight incubation at room temperature in dark. On the next day, the plate was read at a compatible plate reader to obtain pEGFR signal. Percent of pEGFR inhibition was plotted against log concentration of compounds to generate IC50 values.

T2 sequence (P00533 25-1210 T790M/L858R): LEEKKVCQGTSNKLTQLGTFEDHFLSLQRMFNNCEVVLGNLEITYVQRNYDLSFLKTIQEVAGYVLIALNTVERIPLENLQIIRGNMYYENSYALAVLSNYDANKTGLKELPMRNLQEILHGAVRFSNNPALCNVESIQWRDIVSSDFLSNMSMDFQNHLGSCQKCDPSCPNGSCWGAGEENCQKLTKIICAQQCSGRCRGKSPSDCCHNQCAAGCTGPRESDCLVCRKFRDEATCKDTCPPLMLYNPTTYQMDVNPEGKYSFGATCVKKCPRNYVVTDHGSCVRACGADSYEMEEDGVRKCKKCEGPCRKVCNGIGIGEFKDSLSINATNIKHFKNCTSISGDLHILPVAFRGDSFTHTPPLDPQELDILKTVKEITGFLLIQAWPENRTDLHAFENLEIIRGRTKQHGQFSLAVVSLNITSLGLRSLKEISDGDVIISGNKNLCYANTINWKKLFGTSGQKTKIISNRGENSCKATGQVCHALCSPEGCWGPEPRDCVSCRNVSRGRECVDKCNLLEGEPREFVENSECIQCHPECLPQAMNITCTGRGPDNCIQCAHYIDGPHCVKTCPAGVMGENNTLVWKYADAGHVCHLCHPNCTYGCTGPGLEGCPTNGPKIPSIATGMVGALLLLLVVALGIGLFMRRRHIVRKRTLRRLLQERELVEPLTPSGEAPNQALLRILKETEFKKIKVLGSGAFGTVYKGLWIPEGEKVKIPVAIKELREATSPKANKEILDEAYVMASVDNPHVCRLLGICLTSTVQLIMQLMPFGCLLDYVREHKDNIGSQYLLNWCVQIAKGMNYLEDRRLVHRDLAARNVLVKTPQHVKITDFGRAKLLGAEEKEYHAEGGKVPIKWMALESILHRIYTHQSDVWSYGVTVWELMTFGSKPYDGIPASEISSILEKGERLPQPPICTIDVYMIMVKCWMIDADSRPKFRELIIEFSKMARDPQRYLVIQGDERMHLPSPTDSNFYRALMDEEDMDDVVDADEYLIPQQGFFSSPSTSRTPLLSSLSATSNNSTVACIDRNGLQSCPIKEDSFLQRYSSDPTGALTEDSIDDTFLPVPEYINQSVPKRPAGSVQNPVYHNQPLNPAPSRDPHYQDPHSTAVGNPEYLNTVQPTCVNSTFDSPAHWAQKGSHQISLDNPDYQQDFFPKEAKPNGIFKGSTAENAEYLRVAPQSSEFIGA
T1 sequence (P00533 25-1210 T790M/C797S/L858R): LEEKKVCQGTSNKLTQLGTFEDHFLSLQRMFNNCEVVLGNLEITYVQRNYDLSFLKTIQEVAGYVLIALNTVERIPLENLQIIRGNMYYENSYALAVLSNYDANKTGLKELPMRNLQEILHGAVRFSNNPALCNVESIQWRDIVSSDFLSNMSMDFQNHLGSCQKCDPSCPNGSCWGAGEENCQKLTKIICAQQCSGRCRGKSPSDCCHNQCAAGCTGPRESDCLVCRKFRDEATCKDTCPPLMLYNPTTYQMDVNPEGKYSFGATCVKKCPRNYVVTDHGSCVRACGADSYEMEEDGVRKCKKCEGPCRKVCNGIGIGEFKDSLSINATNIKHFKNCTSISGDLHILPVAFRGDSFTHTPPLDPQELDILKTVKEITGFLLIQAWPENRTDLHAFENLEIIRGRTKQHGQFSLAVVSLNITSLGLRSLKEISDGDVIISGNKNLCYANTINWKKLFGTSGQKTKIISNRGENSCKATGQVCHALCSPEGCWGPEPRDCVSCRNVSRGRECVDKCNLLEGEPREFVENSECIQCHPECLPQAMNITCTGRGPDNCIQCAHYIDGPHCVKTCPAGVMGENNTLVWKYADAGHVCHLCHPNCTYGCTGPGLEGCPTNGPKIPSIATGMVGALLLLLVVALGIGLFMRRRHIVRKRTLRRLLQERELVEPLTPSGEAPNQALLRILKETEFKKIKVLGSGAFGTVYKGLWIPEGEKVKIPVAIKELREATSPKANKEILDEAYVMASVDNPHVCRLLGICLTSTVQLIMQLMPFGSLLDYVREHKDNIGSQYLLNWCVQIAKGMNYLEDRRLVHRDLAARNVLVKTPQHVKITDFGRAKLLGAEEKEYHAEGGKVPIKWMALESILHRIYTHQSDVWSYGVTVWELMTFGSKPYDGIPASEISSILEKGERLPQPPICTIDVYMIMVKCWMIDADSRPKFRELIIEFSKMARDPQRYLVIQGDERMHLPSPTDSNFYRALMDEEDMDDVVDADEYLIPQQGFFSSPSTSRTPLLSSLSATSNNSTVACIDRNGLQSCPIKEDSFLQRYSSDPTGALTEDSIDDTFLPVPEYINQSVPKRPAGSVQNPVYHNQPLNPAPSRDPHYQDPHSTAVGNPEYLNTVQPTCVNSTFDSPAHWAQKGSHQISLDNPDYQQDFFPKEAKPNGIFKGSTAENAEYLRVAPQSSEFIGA

In general, IC50 refers to the concentration that gives 50% inhibition. Consider `COC[C@@H]1CCN1c1ncc(C(C)C)c2cc(Nc3ccnc(N4CC[C@@H](O)[C@@](C)(F)C4)n3)ncc12` [Example 29, (3S,4R)-3-fluoro-1-(4-((5-isopropyl-8-((S)-2-(methoxymethyl)azetidin-1-yl)-2,7-naphthyridin-3-yl)amino)pyrimidin-2-yl)-3-methylpiperidin-4-ol], for which the results for the IC50 (on EGFR (L858R T790M C797S); in assay [1]) were less than 15 nM and less than 10 nM, respectively.
With `CO[C@H]1CN(c2ncc(C(C)C)c3cc(Nc4ccnc(N5CC[C@@H](O)[C@@](C)(F)C5)n4)ncc23)[C@@H]1C` [Example 107, (3S,4R)-3-fluoro-1-(4-((5-isopropyl-8-((2R,3S)-3-methoxy-2-methylazetidin-1-yl)-2,7-naphthyridin-3-yl)amino)pyrimidin-2-yl)-3-methylpiperidin-4-ol], the results for the 50% inhibitory concentration (IC50) (on EGFR (L858R T790M C797S); in assay [1]) were less than 15 nM and less than 10 nM, respectively.
Regarding `C[C@@H]1CCN1c1ncc([C@@H](C)OCC2COC2)c2cc(Nc3ccnc(N4CC[C@@H](O)[C@@](C)(F)C4)n3)ncc12` (single isomer, unassigned) [Example 184, (3S,4R)-3-fluoro-3-methyl-1-(4-((8-((R)-2-methylazetidin-1-yl)-5-((R)-1-(oxetan-3-ylmethoxy)ethyl)-2,7-naphthyridin-3-yl)amino)pyrimidin-2-yl)piperidin-4-ol or (3S,4R)-3-fluoro-3-methyl-1-(4-((8-((R)-2-methylazetidin-1-yl)-5-((S)-1-(oxetan-3-ylmethoxy)ethyl)-2,7-naphthyridin-3-yl)amino)pyrimidin-2-yl)piperidin-4-ol], the half-maximal inhibitory concentration (IC50) at EGFR (L858R T790M C797S) was in the range of 20 to 30 nM; in assay [1], 30 to 50 nM.
For `CC(C)c1cnc(N2C[C@@H](C(=O)N(C)C)[C@@H]2C)c2cnc(Nc3ccnc(N4CC[C@@H](O)[C@@](C)(F)C4)n3)cc12` (single isomer, unassigned) [Example 155, (2S,3R)-1-(6-((2-((3S,4R)-3-fluoro-4-hydroxy-3-methylpiperidin-1-yl)pyrimidin-4-yl)amino)-4-isopropyl-2,7-naphthyridin-1-yl)-N,N,2-trimethylazetidine-3-carboxamide or (2R,3S)-1-(6-((2-((3S,4R)-3-fluoro-4-hydroxy-3-methylpiperidin-1-yl)pyrimidin-4-yl)amino)-4-isopropyl-2,7-naphthyridin-1-yl)-N,N,2-trimethylazetidine-3-carboxamide], in that order: less than 15 nM and less than 10 nM.
`CC(C)c1ccc(N2CC(n3ccnn3)C2)c2cnc(Nc3ccnc(N4CC[C@@H](O)[C@@](C)(F)C4)n3)cc12` [Example 38, (3S,4R)-1-(4-((8-(3-(1H-1,2,3-triazol-1-yl)azetidin-1-yl)-5-isopropylisoquinolin-3-yl)amino)pyrimidin-2-yl)-3-fluoro-3-methylpiperidin-4-ol]: the figures for the half-maximal inhibitory concentration (IC50) (on EGFR (L858R T790M C797S); in assay [1]) were less than 15 nM and less than 10 nM, respectively.
Turning to `CC(C)c1cnc(N2C[C@H](O)[C@H]2C)c2cnc(Nc3ccnc(N4CCC(C)(O)CC4)n3)cc12` [Example 128, 1-(4-((8-((2R,3S)-3-hydroxy-2-methylazetidin-1-yl)-5-isopropyl-2,7-naphthyridin-3-yl)amino)pyrimidin-2-yl)-4-methylpiperidin-4-ol], the values for the IC50 (on EGFR (L858R T790M C797S); in assay [1]) were less than 15 nM and more than 50 nM, respectively.
In the same order, the values of `CC(C)c1cnc(N2CC[C@@H](S(C)(=O)=O)C2)c2cnc(Nc3ccnc(N4CC[C@@H](O)[C@@](C)(F)C4)n3)cc12` [Example 74, (3S,4R)-3-fluoro-1-(4-((5-isopropyl-8-((R)-3-(methylsulfonyl)pyrrolidin-1-yl)-2,7-naphthyridin-3-yl)amino)pyrimidin-2-yl)-3-methylpiperidin-4-ol] are less than 15 nM and less than 10 nM.
Take `CC(C)c1ccc([C@H]2C[C@H](CS(C)(=O)=O)C2)c2cnc(Nc3ccnc(N4CC[C@@H](O)[C@@](C)(F)C4)n3)cc12` [Example 1, (3S,4R)-3-fluoro-1-(4-((5-isopropyl-8-((1r,3S)-3-((methylsulfonyl)methyl)cyclobutyl)isoquinolin-3-yl)amino)pyrimidin-2-yl)-3-methylpiperidin-4-ol]: the IC50 on EGFR (L858R T790M C797S) is less than 15 nM; in assay [1], less than 10 nM.
In the same order, the values of `CO[C@@H]1CCN(c2nccc(Nc3cc4c(C(C)C)ccc(N5C[C@H](O)[C@H]5C)c4cn3)n2)C[C@@H]1O` (single isomer, unassigned) [Example 123, (3S,4R)-1-(4-((8-((2R,3S)-3-hydroxy-2-methylazetidin-1-yl)-5-isopropylisoquinolin-3-yl)amino)pyrimidin-2-yl)-4-methoxypiperidin-3-ol-ol or (3R,4S)-1-(4-((8-((2R,3S)-3-hydroxy-2-methylazetidin-1-yl)-5-isopropylisoquinolin-3-yl)amino)pyrimidin-2-yl)-4-methoxypiperidin-3-ol] are 15 to 20 nM and more than 50 nM.
As to `COC[C@@H](C)c1cnc(N2CC[C@H]2C)c2cnc(Nc3ccnc(N4CC[C@@H](O)[C@@](C)(F)C4)n3)cc12` (single isomer, unassigned) [Example 216, (3S,4R)-3-fluoro-1-(4-((5-((S)-1-methoxypropan-2-yl)-8-((R)-2-methylazetidin-1-yl)-2,7-naphthyridin-3-yl)amino)pyrimidin-2-yl)-3-methylpiperidin-4-ol or (3S,4R)-3-fluoro-1-(4-((5-((R)-1-methoxypropan-2-yl)-8-((R)-2-methylazetidin-1-yl)-2,7-naphthyridin-3-yl)amino)pyrimidin-2-yl)-3-methylpiperidin-4-ol], the half-maximal inhibitory concentration (IC50) is 15 to 20 nM on EGFR (L858R T790M C797S) and 20 to 30 nM in assay [1].
In the same order, the values of `C[C@@H]1CCN1c1ncc([C@@H](C)C(C)(C)O)c2cc(Nc3ccnc(N4CC[C@@H](O)[C@@](C)(F)C4)n3)ncc12` (single isomer, unassigned) [Example 186, (3S,4R)-3-fluoro-1-(4-((5-((R)-3-hydroxy-3-methylbutan-2-yl)-8-((R)-2-methylazetidin-1-yl)-2,7-naphthyridin-3-yl)amino)pyrimidin-2-yl)-3-methylpiperidin-4-ol or (3S,4R)-3-fluoro-1-(4-((5-((S)-3-hydroxy-3-methylbutan-2-yl)-8-((R)-2-methylazetidin-1-yl)-2,7-naphthyridin-3-yl)amino)pyrimidin-2-yl)-3-methylpiperidin-4-ol] are less than 15 nM and 10 to 20 nM.
`CC(C)c1cnc(-c2cn(C)nn2)c2cnc(Nc3ccnc(N4CCC5(CCO5)CC4)n3)cc12` [Example 23, N-(2-(1-oxa-7-azaspiro[3.5]nonan-7-yl)pyrimidin-4-yl)-5-isopropyl-8-(1-methyl-1H-1,2,3-triazol-4-yl)-2,7-naphthyridin-3-amine]: the concentration for half-maximal inhibition (IC50) at EGFR (L858R T790M C797S) is less than 15 nM; in assay [1], more than 50 nM.
Turning to `CC(C)c1cnc(N2CC(n3ccnc3)C2)c2cnc(Nc3ccnc(N4CC[C@@H](O)[C@@](C)(F)C4)n3)cc12` [Example 219, (3S,4R)-1-(4-((8-(3-(1H-imidazol-1-yl)azetidin-1-yl)-5-isopropyl-2,7-naphthyridin-3-yl)amino)pyrimidin-2-yl)-3-fluoro-3-methylpiperidin-4-ol], the values for the half-maximal inhibitory concentration (IC50) (at EGFR (L858R T790M C797S); in assay [1]) were 20 to 30 nM and more than 50 nM, respectively.
In the case of `CC(C)c1cnc(N2CC(O)(CC#N)C2)c2cnc(Nc3ccnc(N4CC[C@@H](O)[C@@](C)(F)C4)n3)cc12` [Example 72, 2-(1-(6-((2-((3S,4R)-3-fluoro-4-hydroxy-3-methylpiperidin-1-yl)pyrimidin-4-yl)amino)-4-isopropyl-2,7-naphthyridin-1-yl)-3-hydroxyazetidin-3-yl)acetonitrile], the IC50 on EGFR (L858R T790M C797S) is 15 to 20 nM; in assay [1] it was more than 50 nM.
On to `CO[C@H]1CCN(c2nccc(Nc3cc4c(C(C)C)cnc(N5CC(O)C5)c4cn3)n2)C[C@H]1F` [Example 44, 1-(6-((2-((3R,4S)-3-fluoro-4-methoxypiperidin-1-yl)pyrimidin-4-yl)amino)-4-isopropyl-2,7-naphthyridin-1-yl)azetidin-3-ol], for which the IC50 is less than 15 nM at EGFR (L858R T790M C797S) and 20 to 30 nM in assay [1].
Take `CC(C)c1cnc(N2CC3(CCN(C)C3=O)C2)c2cnc(Nc3ccnc(N4CC[C@@H](O)[C@@](C)(F)C4)n3)cc12` [Example 99, 2-(6-((2-((3S,4R)-3-fluoro-4-hydroxy-3-methylpiperidin-1-yl)pyrimidin-4-yl)amino)-4-isopropyl-2,7-naphthyridin-1-yl)-6-methyl-2,6-diazaspiro[3.4]octan-5-one]: the IC50 lay within 30 to 100 nM at EGFR (L858R T790M C797S) and 30 to 50 nM in assay [1].
Regarding `CC(C)c1cnc(N2C[C@H](O)[C@H]2C)c2cnc(Nc3ccnc(N4C[C@@H](F)[C@@H](O)[C@@](C)(F)C4)n3)cc12` (single isomer, unassigned) [Example 133, (3S,4R,5R)-3,5-difluoro-1-(4-((8-((2R,3S)-3-hydroxy-2-methylazetidin-1-yl)-5-isopropyl-2,7-naphthyridin-3-yl)amino)pyrimidin-2-yl)-3-methylpiperidin-4-ol or (3R,4S,5S)-3,5-difluoro-1-(4-((8-((2R,3S)-3-hydroxy-2-methylazetidin-1-yl)-5-isopropyl-2,7-naphthyridin-3-yl)amino)pyrimidin-2-yl)-3-methylpiperidin-4-ol], the IC50 at EGFR (L858R T790M C797S) is less than 15 nM; in assay [1] it was 10 to 20 nM.

These data come from patent US20240382483A1, “HETEROCYCLIC EGFR INHIBITORS FOR USE IN THE TREATMENT OF CANCER” (Blueprint Medicines Corporation, priority 2021, published 2024).
